Data taken from patent publication US8410284B2, “Cyclic benzimidazole derivatives useful as anti-diabetic agents” (Merck Sharp & Dohme Corp, priority 2008, dated 2013).
Structures can show the parent of a compound that is named as a salt.

Assays:
[1] = target: recombinant human AMPK complex 1 (containing α1β1γ1) (Homo sapiens, UniProt Q13131+Q9Y478); assay: In vitro AMPK activation assay (AMPKSAMSF); format: biochemical; conditions: recombinant human AMPK complex 1 (α1β1γ1); for % Maximum AMP Activation of human AMPK Complex 1: basal activity subtracted; for Emax: read-out: maximum AMP activation
recombinant human AMPK complex 1 (containing α1β1γ1), sequence (Q13131 whole entry): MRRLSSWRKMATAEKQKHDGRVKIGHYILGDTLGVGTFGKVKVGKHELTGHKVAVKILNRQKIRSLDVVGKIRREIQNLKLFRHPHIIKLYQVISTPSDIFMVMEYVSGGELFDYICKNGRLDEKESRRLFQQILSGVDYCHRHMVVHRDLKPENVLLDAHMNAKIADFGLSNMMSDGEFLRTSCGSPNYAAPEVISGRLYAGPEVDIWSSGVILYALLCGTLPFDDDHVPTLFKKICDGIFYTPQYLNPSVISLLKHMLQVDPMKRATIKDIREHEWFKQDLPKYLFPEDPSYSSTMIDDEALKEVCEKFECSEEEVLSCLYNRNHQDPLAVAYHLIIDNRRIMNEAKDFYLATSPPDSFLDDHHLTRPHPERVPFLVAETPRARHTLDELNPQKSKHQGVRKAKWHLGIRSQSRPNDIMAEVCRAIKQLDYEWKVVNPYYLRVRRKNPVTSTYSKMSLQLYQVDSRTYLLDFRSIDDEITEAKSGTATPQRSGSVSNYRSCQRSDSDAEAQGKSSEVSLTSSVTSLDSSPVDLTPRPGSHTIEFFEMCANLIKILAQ
recombinant human AMPK complex 1 (containing α1β1γ1), sequence (Q9Y478 whole entry): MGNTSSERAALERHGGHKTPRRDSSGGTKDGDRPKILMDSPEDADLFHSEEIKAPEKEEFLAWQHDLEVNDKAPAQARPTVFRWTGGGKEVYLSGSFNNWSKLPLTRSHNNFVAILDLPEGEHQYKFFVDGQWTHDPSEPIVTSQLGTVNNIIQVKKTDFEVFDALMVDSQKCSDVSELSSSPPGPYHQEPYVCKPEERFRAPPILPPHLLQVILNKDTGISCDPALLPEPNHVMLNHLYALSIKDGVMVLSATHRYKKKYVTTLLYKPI
recombinant human AMPK complex 1 (containing α1β1γ1), sequence (P54619 whole entry partner): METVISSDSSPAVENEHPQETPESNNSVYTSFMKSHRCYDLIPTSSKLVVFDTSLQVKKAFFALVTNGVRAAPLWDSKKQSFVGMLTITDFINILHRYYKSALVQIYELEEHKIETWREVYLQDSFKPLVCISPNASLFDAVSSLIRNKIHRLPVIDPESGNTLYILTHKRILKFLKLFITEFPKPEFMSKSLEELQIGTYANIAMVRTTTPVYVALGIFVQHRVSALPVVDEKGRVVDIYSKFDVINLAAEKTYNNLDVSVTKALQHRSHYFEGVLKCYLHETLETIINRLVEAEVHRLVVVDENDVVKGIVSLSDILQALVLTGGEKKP
Procedure: AMPKSAMSF (In Vitro AMPK Activation Assay)
The recombinant human AMPK complex 1 (containing α1β1γ1) was obtained from baculovirus expression system. Recombinant viruses were generated by cotransfection of AMPK/pBacPak9 clones with Baculogold baculovirus DNA (Pharmingen) in spodoptera frugiperda 21 cells according to the manufacturer's instructions. Each round of virus amplification was performed for 5 days in Grace's medium containing 10% serum. Virus that had been subjected to three rounds of amplification was used for all protein production procedures. To express the AMPK complex, sf21 cells were adapted to serum free medium (SF900 II, Invitrogen) by sequential dilution from serum containing stocks into SF900 II medium and maintained in shaker flasks at 90 rpm at 27° C. The recombinant AMPK enzyme complex was produced by triple infection, one recombinant virus for each of the subunits, in sf21 cells under serum free conditions. Cells were infected in log phase, 1×10^6 cells/ml, at a multiplicity of infection of ˜5. Cells were harvested by centrifugation at 10,000×g for 15 minutes after 72 hours of infection with viruses. The insect cell pellet from 2 liters of culture was resuspended in 50 ml lysis buffer (20 mM Tris-HCl, 50 mM NaCl, 50 mM NaF, 30 mM Na PPi, 0.25 M sucrose, 10 mM ZnCl2, 2 mM DTT, 0.4 mg/ml digitonin) and subjected to two cycles of freeze-thaw lysis in a dry-ice ethanol bath. Insoluble material was removed by centrifugation at 10,000×g and the supernatant was fractionated with use of polyethylene glycol (PEG). The protein fraction precipitating between 2.5 and 6% PEG was used for further purification using a Blue-Sepharose step (Zhou et al, J. Clin. Invest. 108, 1167-1174, 2001).
The total in vitro AMPK activation assay volume is 50 μl in a 96-well plate. The reaction mixture contained 100 μM ATP (0.5 μCi ^33P-ATP per reaction), and 50 μM SAMS (HMRSAMSGLHLVKRR) in a buffer (20 mM HEPES, pH 7.0, 5 mM MgCl2, 0.01% Brij35). The reaction was initiated with addition of the enzyme. After 30-minute incubation at 30° C., the reaction was stopped by addition of 80 μl 1% H3PO4. Aliquots (100 μl) were transferred to 96-well MultiScreen plates (MAPHNOB50; Millipore Corp., Bedford, Mass., USA). The plate was washed three times with 1% H3PO4 followed by detection in a Top-count. The counts per minute from the basal activity (the reaction without activator) was subtracted from each well and the data were expressed as % maximum AMP activation followed by EC50 calculation.

ob/ob and db/db mice = conditions: following 8 weeks of administration; cited from earlier work

O=P(O)(O)c1cccc(Oc2nc3cc(-c4ccc(-c5ccccc5)cc4)c(Cl)cc3[nH]2)c1 [Example 2, ((5-(4-Biphenyl)-6-chloro-1H-benzimidazol-2-yl)oxo)phen-3-ylphosphonic acid]
melting point: 199 to 205 °C
EC50 [1]: 2.5 nM
% Maximum AMP Activation of human AMPK Complex 1 [1]: 205%
Emax [1]: > 80%

Cc1ccc(Oc2nc3cc(-c4ccc(-c5ccccc5)cc4)c(Cl)cc3[nH]2)cc1P(=O)(O)O [Example 1, ((5-(4-Biphenyl)-6-chloro-1H-benzimidazol-2-yl)oxo)-4-methylphen-3-ylphosphonic acid]
EC50 [1]: 0.9 nM
% Maximum AMP Activation of human AMPK Complex 1 [1]: 175%
Emax [1]: > 80%

Cc1ccc(Oc2nc3cc(-c4ccc(-c5ccccc5)cc4)c(Cl)cc3[nH]2)cc1P(=O)(O)O (as salt: salt) [Example 1, ((5-(4-Biphenyl)-6-chloro-1H-benzimidazol-2-yl)oxo)-4-methylphen-3-ylphosphonic acid]
melting point: 225 to 228 °C

Cc1ccc(Cc2nc3cc(-c4ccc(-c5ccccc5)cc4)c(Cl)cc3[nH]2)cc1P(=O)(O)O [Example 11, {5-[(5-biphenyl-4-yl-6-chloro-1H-benzimidazol-2-yl)methyl]-2-methylphenyl}phosphonic acid]
melting point: > 220 °C
Emax [1]: > 80%

NC(=O)c1ncn([C@@H]2O[C@H](CO)[C@@H](O)[C@H]2O)c1N [AICAR]
blood glucose reduction (ob/ob and db/db mice): 35%
